These results are taken from US20060058395A1, “Compounds useful for the treatment of diseases responsive to antiangiogenetic therapy” (NEUROSEARCH A/S, priority 2002, published 2006).

One series concerns HUVEC. In words: Cell morphology and proliferation assay. In kind it is cell-based. As to the method: Cell Morphology and Proliferation Assay
One week before the assay, a vial with HUVEC (passage 1) was thawed and cultured (after a split ratio of 1:3) to confluence (passage 2). The confluent culture of HUVEC was detached by trypsin/EDTA solution, and allowed to adhere and spread at cell density of 10, 50 and 100% confluency on gelatine-coated dishes in M199-HEPES medium supplemented with 10% heat-inactivated NBCS, 10% human serum and penicillin/streptomycin. After 18 h the HUVEC were preincubated with the test compounds for 4 hours. Then the HUVEC were washed and restimulated in the absence or presence of the test compounds and the reference compounds with 2.5 ng/ml FGF-2 in M199-HEPES, penicillin/streptomycin, 10% NBCS, 10% human serum and 0.1% DMSO in triplicate wells for 5 (10% confluency) or 3 days (50 and 100% confluency), with or without the test compounds. The cell number was determined by image analysis (P. Koolwijk, 2001)
To investigate the mode of action of the compound on proliferating and non-proliferating HUVEC, experiments were performed on 10%, 50% and 100% confluent monolayers of HUVEC. The 10% and 50% confluent HUVEC monolayers represent the status of angiogenic endothelial cells able to proliferate and migrate when stimulated. The 100% HUVEC monolayers represent the quiescent character of the endothelial cells in the existing blood vessel. The 4-hour preincubation experiments were performed to be able to discriminate between general toxicity and the induction of apoptosis.

In another series the test system is neovascularisation. Briefly: Mouse anti-angiogenesis assay (bFGF sponge implant). In kind it is in vivo. The settings on record: for neovascularisation in mice (percent inhibition): Days 3-9. As to the method: NMRI female mice (SPF Bom:NMRI) weighing 25-27 g were obtained from M&B, Ejby, Lille Skensved, Denmark. They were housed in a facility where light was controlled on a 12 hour light-dark cycle. […] The animals were fed a pelleted rodent diet (Altromin 1324, Brogarden, Denmark) ad libitum and had free access to tap water. All animals were observed daily for clinical signs.
Slow-release pellets containing 400 ng of human basic fibroblast growth factor (Innovative Research of America, Florida, USA) were circular and with a diameter of 1.5 mm. The angiogenic peptide was guarantied by the supplier to be released over a period of 10 days.
The mice were anaesthetized using inhalation anaesthesia (halothane/N2O and oxygen). The skin of the back was shaved using an electric shaver and the skin was disinfected using 70% ethanol. A 5 mm incision was made transversely in close proximity to the shoulder blades and a 2 cm pocket reaching caudally to the pelvic region was created by blunt dissection, carefully separating the skin from the fascie. A polyurethane sponge with the dimension of 8×5×3 mm containing a slow-release pellet of 400 ng bFGF was placed at the caudal end of the pocket and the incision was closed by a single or double invert suture using Perma-Hand Seide 4/0 (Johnson & Johnson, Brussels, Belgium). The animals were treated by an analgesic subcutaneous injection of carprofen 2 mg/kg.
The angiogenic response was quantitated as previously described (Lichtenberg et al., 1997, 1999 & 2002). Briefly, twenty minutes before euthanasia 1 μCi of ^125I-labelled immuno-globulin (Amersham, UK) in 50 μl of 0.9% NaCl was injected intravenously into a tail vein. The animals were euthanised by O2/CO2 asphyxiation and the skin overlying the sponge implant was removed. The sponge implant with the pellet was placed in a plastic vial containing 4% formalin and the ^125I-activity was measured in a γ-counter. Differences in angiogenic response measured as ^125I-activity in cpm were assessed by Student's t-test, grouped data, with P<0.05 regarded as statistically significant. Data was expressed as means±SEM.
Three separate experiments were conducted: Two experiments were performed with Compound a and one experiment was performed with Compound b. In the first two experiments with Compound a, 3 groups each comprising 5 animals was treated orally with Compound a at the dose levels of 0 (saline), 5 and 10 mg/kg/day (experiment 1) and with 20 and 40 mg/kg/day (experiment 2). In the third experiment, 3 groups each comprising 6 animals was treated orally with the vehicle (saline) and 80 mg/kg/day of Compound a. In all experiments the animals were treated from Days 3-9 and killed at day 10.

In series [1] the test system is HUVEC, fibroblasts, Mel 57 and T47D cells. Briefly: Cell-specificity assay: incorporation of [3H]thymidine. The settings on record: bFGF-induced HUVEC and fibroblast proliferation vs NBCS-induced Mel 57 and T47D proliferation; FIG. 1. In kind it is cell-based. As to the method:
Cell-Specificity Assay: Incorporation of [^3H]Thymidine
Confluent cultures of HUVEC, fibroblasts, Mel 57 and T47D cells were detached by trypsin/EDTA solution, and allowed to adhere and spread at an appropriate cell density on gelatine-coated dishes in M199-HEPES medium or DMEM-HEPES medium both supplemented with 10% heat-inactivated new born calve serum (NBCS) and penidillin/streptomycin. After 18 h the HUVEC and fibroblasts were stimulated with 2.5 ng/ml FGF-2 in M199-HEPES, penicillin/streptomycin, 10% NBCS and 0.1% DMSO in duplicate wells, with or without the test compounds. […] Subsequently, the cells were washed with PBS, [3H]-labelled DNA were fixed with methanol, and precipitated in 5% trichloroacetic-acid, and finally dissolved in 0.5 ml 0.3 M NaOH and counted in a liquid scintillation counter.
All outcome measures were measured in singular, i.e. one measurement per culture well. The proliferation of HUVEC, fibroblast, Mel 57, and T47D tumor cells was expressed as mean±range [3H]-thymidine incorporation (dpm) of duplicate wells.
The percentage of inhibition of FGF-2-induced HUVEC and fibroblast proliferation by the compounds was calculated as follows: [formula] […] The percentage of inhibition of the Mel 57 and T47D tumor cell proliferation by the compounds will be calculated as follows: [formula] […]

The next series concerns B16/F10 melanoma cells. In words: Mouse metastasis assay. The settings on record: for Colony Count (B16 melanoma lung colonies): day 14, mean ± SEM; for % Reduction of melanoma lung colonies vs vehicle: C57BL/6 mice. The series is classed as in vivo, mice. From the text:
Female C57BL/6 mice were supplied and delivered by Charles River UK Ltd. The animals were approximately 6 weeks of age at the start of the study. The body weights at the start of dosing were in the range 10-21 g. The mice were housed in solid-bottomed plastic cages, containing wood shavings, in groups of up to 10. During acclimatization, the rooms and cages were cleaned at regular intervals to maintain hygiene. The mice were fed an expanded rodent diet ad libitum and allowed free access to mains tap water. […] (McKay, 2002).
Data was expressed as means±SEM and analysed using appropriate statistical methods. Statistical significance was assumed when P<0.05.
Two separate studies were conducted: One was performed with Compound a (experiment 1) and one with Compound b (experiment 2). In each study there were 4 treatment groups. The treatment groups were as follows:
Treatments for groups 24 were administered orally, by gavage. The dose volume used was 20 ml/kg for groups 2 and 4 and 15 ml/kg for group 3.
C57BU6 mice were injected intravenously, via a tail vein, with 0.1 ml of a suspension of B16/F10 melanoma cells (approximately 3×10^5 cells/mouse) on day 0. With the exception of the untreated group, animals were dosed orally, by gavage, or intravenously, according to their allocated treatment group once daily, from day −2 to day 10 (13 administrations). The animals were killed on day 14 (14 days after injection of the tumour cells). The lungs from each animal were removed and weighed prior to fixing in Bouin's solution.

Where [2] appears, read: 60 mg/kg p.o. once daily day -2 to day 10, C57BL/6 mice.
[3] abbreviates: 80 mg/kg p.o. once daily day -2 to day 10, C57BL/6 mice.

“And” between values parts separate entries of the source, which are not always exact repeats. Identical values can stand only once.

`O=C(Nc1ccc([N+](=O)[O-])cc1)Nc1ccc(Br)cc1-c1nnn[nH]1` [Compound a, N-4-Nitrophenyl-N′-[4-bromo-2-(1-H-tetrazol-5-yl)phenyl]urea]: the “inhibition of HUVEC proliferation” value with HUVEC (4-hour preincubation, compound then removed for the rest of the stimulation period) is “not able to inhibit HUVEC proliferation significantly”; in the series on HUVEC (continuous presence of the compound, 10% confluent monolayers), “clear inhibitory effect”; in the series on HUVEC (continuous presence of the compound, 50% confluent monolayers), “slightly observed”; with HUVEC (continuous presence of the compound, 100% confluent monolayers), “no effect”. Further, in the series on HUVEC (100% confluent monolayers, culture periods with the compound), the “cytotoxicity (HUVEC morphology, floating dead cells)” value is “no change of HUVEC morphology and the amount of floating dead cells”. Besides, the “cytotoxicity (cell death, floating cells in the media)” value in the series on HUVEC (HUVEC, 4-hour preincubation period) was “No signs of any cytotoxicity”. Besides, the “neovascularisation in mice (percent inhibition)” value in the series with neovascularisation (5 mg/kg/day orally) stood at 15%; in the series on neovascularisation (20 mg/kg/day orally) it was 28%. Further, in the series on neovascularisation (oral, neovascularisation in mice), the “No Effect Level (NOEL)” value is recorded as 5 mglkg/day. The “cell-specificity of inhibition of proliferation” value in series [1] is “more potent inhibitor of the bFGF-induced HUVEC and fibroblast proliferation”. Further, the entries for the “Colony Count (B16 melanoma lung colonies)” value in the series on B16/F10 melanoma cells (setting [2]) and in the series with B16/F10 melanoma cells (setting [3]) were 64.68 ± 2.65 and 61.85 ± 2.89, respectively. In addition, the “% Reduction of melanoma lung colonies vs vehicle” value in the series on B16/F10 melanoma cells (60 mg/kg p.o.) is 17% and 17.38%; with B16/F10 melanoma cells (80 mg/kg p.o.) it was 21%.

On to `O=C(Nc1cc(C(F)(F)F)cc(C(F)(F)F)c1)Nc1ccc(Br)cc1-c1nnn[nH]1` [Compound b, N-3,5-Di(trifluoromethyl)phenyl-N′-[4-bromo-2-(1-H-tetrazol-5-yl)phenyl]urea], for which the “tolerability (signs of toxicity, body weight gain)” value in the series with neovascularisation (mice, selected dose levels, oral) is “no signs of toxicity or changes of the body weight gain”. Besides, the results for the “Colony Count (B16 melanoma lung colonies)” value in the series with B16/F10 melanoma cells (setting [2]) and in the series on B16/F10 melanoma cells (setting [3]) were 41.55 ± 9.55 and 36.65 ± 5.82, respectively. The “% Reduction of melanoma lung colonies vs vehicle” value is 36% and 36.45% in the series on B16/F10 melanoma cells (60 mg/kg p.o.); 44% and 43.97% with B16/F10 melanoma cells (80 mg/kg p.o.).
